Reference: PubChem BioAssay (NCI)
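Step 1: Grow cells in 96-well plates. Step 2: Expose to compound for 48 hours at 5 concentrations. Step 3: Interpolate endpoints linearly; if unreached, use highest concentration. Abbreviation: GI50, concentration required for 50% inhibition of growth. TGI denotes the concentration required for complete inhibition of growth.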

Legend:
Test in all cases: DTP human tumour cell line panel, 48 h
UO-31 renal = tested on: UO-31 renal
NCI-H522 lung = tested on: NCI-H522 lung
OVCAR-5 ovarian = tested on: OVCAR-5 ovarian
SN12C renal = tested on: SN12C renal
SNB-75 CNS = tested on: SNB-75 CNS
RXF 393 renal = tested on: RXF 393 renal
UACC-62 melanoma = tested on: UACC-62 melanoma
SK-MEL-28 melanoma = tested on: SK-MEL-28 melanoma
DU-145 prostate = tested on: DU-145 prostate
MDA-N = tested on: MDA-N

Compound | TGI (UO-31 renal) [µM] | TGI (NCI-H522 lung) [µM] | TGI (OVCAR-5 ovarian) [µM] | TGI (SN12C renal) [µM] | TGI (SNB-75 CNS) [µM] | TGI (RXF 393 renal) [µM] | TGI (UACC-62 melanoma) [µM] | TGI (SK-MEL-28 melanoma) [µM] | TGI (DU-145 prostate) [µM] | TGI (MDA-N) [µM] | GI50 (SNB-75 CNS) [µM] | GI50 (UO-31 renal) [µM] | GI50 (NCI-H522 lung) [µM] | GI50 (SK-MEL-28 melanoma) [µM] | GI50 (SN12C renal) [µM] | GI50 (RXF 393 renal) [µM] | GI50 (DU-145 prostate) [µM] | GI50 (UACC-62 melanoma) [µM]
COc1cc(C(C)c2cc3c(cc2OCCO)OCO3)cc(OC)c1OC (stereo unspecified) | > 100 | 2.93 | > 100 | > 100 | 4.34 | 3.43 | > 100 |  |  |  |  |  |  |  |  |  |  | 
CCNC(=O)c1cc(/C=C/c2ccc([N+](=O)[O-])o2)nc2ccccc12 | > 100 | > 49 | > 100 | > 100 | 63.8 | > 100 | > 100 | 71.4 | > 100 |  |  |  |  |  |  |  |  | 
CCOC(=O)c1cnc2oc3ccc(O)cc3c2c1-c1ccccc1 |  |  | > 100 | > 100 | 52.4 | > 100 | > 100 | > 100 | > 100 | > 100 | 16.5 |  |  |  |  |  |  | 
CCOc1cc(C2CC(c3ccc(NS(=O)(=O)c4cc([N+](=O)[O-])ccc4C)cc3)=NN2c2ccc([N+](=O)[O-])cc2[N+](=O)[O-])ccc1O (stereo unspecified) | 39.8 | 34.2 | 60.3 | 9.97 | 35.3 | 27 |  | 89.4 | 45.1 | 39.5 |  |  |  |  |  |  |  | 
C[C@H]1C[C@H]2[C@@H]3C(C)(C)O[C@]4(O)C(=O)[C@]5(O)[C@@H](C)CC[C@H]1[C@]25C(=O)[C@]34C | > 100 | 48 | > 100 | > 100 |  |  | > 100 |  | > 100 | > 100 |  |  |  |  |  |  |  | 
CC1(C)CC(=O)c2c(nc3ccc4ccccc4c3c2-c2ccc(NC(=O)CCCCCCCCC(=O)Nc3ccc(-c4c5c(nc6ccc7ccccc7c46)CC(C)(C)CC5=O)cc3)cc2)C1 | > 100 |  | > 100 | > 100 |  |  | > 100 | > 100 | > 100 | > 100 |  |  |  |  |  |  |  | 
COc1cc2cc[n+]3c(C)c4cc(OC)c(OC)cc4c([O-])c3c2cc1OC | > 100 | 42 | > 100 | > 100 | > 100 | 89.9 | > 100 | > 100 |  |  |  |  |  |  |  |  |  | 
CC(=O)Nc1ccc(OC2=CCN(C)CC2)cc1 | > 100 |  | > 100 | > 100 | > 100 | > 100 | > 100 | > 100 | > 100 | > 100 |  |  |  |  |  |  |  | 
Cc1nc2c(sc(=S)n2-c2ccccc2)c(=O)[nH]1 | > 100 | > 100 | > 100 |  |  |  | > 100 | > 100 |  |  |  |  |  |  |  |  |  | 
OC(CCNCc1ccccc1)c1ccc2ccccc2c1 (stereo unspecified) | 32.3 | 35 | 75.4 | 72.2 | 75.6 | 37.1 | 35.8 | 34 | 39.6 |  |  |  |  |  |  |  |  | 
CCCCCC(C)SC1(C(=O)OC)CC(OC(C)=O)C(NC(C)=O)C([C@H](OC(C)=O)[C@@H](COC(C)=O)OC(C)=O)O1 (stereo partly specified) | > 100 | > 100 | > 100 | > 100 | > 100 | > 100 |  | > 100 | > 100 | > 100 |  |  |  |  |  |  |  | 
CSc1n[nH]c(N)c1C(=O)Nc1ccc(C)cc1 | > 100 | > 100 | > 100 | > 100 |  | > 100 | > 100 | > 100 | > 100 | > 100 |  |  |  |  |  |  |  | 
COc1ccc(C(=O)Cc2ccc(Br)cc2)cc1OC | > 100 | > 100 | > 100 | > 100 | 54.5 | > 100 | > 100 |  |  |  |  |  |  |  |  |  |  | 
COC(=O)[C@H]1CO[C@H]2C/C(C)=C/CC/C(C)=C/CC[C@@]3(C)O[C@@H]3C[C@H]21 | > 50 | 18.8 | > 50 | 24.3 | 39.2 | 42.6 | 18.2 | 34.9 | > 50 |  |  |  |  |  |  |  |  | 
CCN(C(=S)N[C@H](C(=O)N[C@@H](C)C(=O)OC)C(C)C)c1ccccc1 | > 100 | > 100 | > 100 | > 100 |  | > 100 | > 100 | > 100 | > 100 | > 100 |  |  |  |  |  |  |  | 
COc1ccccc1Cc1nc(-c2ccccc2)nn(C2OC(COC(C)=O)C(OC(C)=O)C(OC(C)=O)C2OC(C)=O)c1=S (stereo unspecified) | > 86 | 36.4 | > 100 | 32.2 | 15.4 | 31.9 | > 80.3 | > 100 |  |  |  |  |  |  |  |  |  | 
Cc1c2c(n(CCc3ccc(Cl)cc3)c1C)NC(c1ccccc1)C(C#N)S2(=O)=O (stereo unspecified) | > 100 | > 100 | > 100 | > 100 | > 100 |  | > 100 | > 100 | > 100 | > 74.9 |  |  |  |  |  |  |  | 
CC1(c2ccc[n+](Cc3ccccc3)c2)OCCO1 | > 100 | > 100 | > 100 | > 100 | > 100 | > 100 | > 100 |  |  |  |  |  |  |  |  |  |  | 
COc1ccc(-c2cc(-c3cc4cc(Br)ccc4nc3Cl)c(C#N)c(N)n2)cc1 | > 12.5 | > 12.5 | > 12.5 | > 12.5 | > 12.5 | > 12.5 |  | > 12.5 | > 12.5 | > 12.5 |  |  |  |  |  |  |  | 
CC1CC/C(=C\c2ccc(Cl)cc2)C2OC(N)=C(C#N)C(c3ccc(Cl)cc3)=C12 (stereo unspecified) | 24.9 |  | 37.5 | 26.5 |  | 71.8 | 31 | 37.5 | 34.5 | 32.2 |  |  |  |  |  |  |  | 
O=c1c2cc(I)ccc2nc(-c2cccs2)n1-c1ccc(O)cc1 | 25.4 | 30.1 | 30.2 | 40.7 |  | 30.8 | 26.9 | 34 | 19.7 | 62.8 |  |  |  |  |  |  |  | 
NCCCN(CCCN)CCN(CCN(CCCN)CCCN)CCN(CCCN)CCCN | > 100 | 63.3 | > 100 | > 100 | 22.9 |  |  | > 100 | > 100 | > 100 |  |  |  |  |  |  |  | 
C[C@@H]1CC[C@H]2C(C(O)CCCCC(O)C3=C(C(F)(F)F)O[C@@H]4O[C@@]5(C)CC[C@H]6[C@H](C)CC[C@@H]3[C@@]46OO5)=C(C(F)(F)F)O[C@@H]3O[C@@]4(C)CC[C@@H]1[C@]32OO4 (stereo partly specified) | > 100 | > 100 |  | > 100 | > 100 | > 100 | > 100 | > 100 | > 100 |  | 42.4 | 10.2 | 26.6 | 86.7 | 21 | 9.06 | 99.9 | 8.13
